This data set can be described thus: Analytical ultracentrifugation (sedimentation equilibrium). In kind it is physicochemical. The method, then:
Analytical Ultracentrifugation:
Sedimentation equilibrium experiments were performed on a Beckman Optima XL-A analytical ultracentrifuge at 4° C. Six-channel cells (12 mm optical path length) were used with an An-60 Ti rotor operated at 13,500, 16,000, 17,000, 20,000, 21,000, 24,000, 25,000, 27,500, 30,000 and 35,000 rpm. The cell radii were scanned using 0.001 cm steps with 10 averages/scan. Data were analyzed using Beckman XLA data analysis software (version 3.01 for Windows) and Beckman-Origin software (version 3.78 for Windows). […] The partial specific volumes were held constant for all models considered.
Single data files were normalized to 270 nm absorbance values using Beer's Law. The data obtained with solutions containing the DP107-like peptides were then analyzed using a single ideal species model to determine a weight-averaged molecular weight (Mw). Diagnostic plots of Mw/Mw0 vs. rpm/rpm0 and Mw vs. radial concentration were used to test for sample homogeneity as described, e.g., by McRorie & Voelker, 1993, Self-Associating Systems in the Analytical Ultracentrifuge, Beckman Instruments, Inc., Palo Alto; and Yphantis et al., 1978, in Physical Aspects of Protein Interactions: Proceedings of the Symposium on Protein Interactions, American Chemical Society Meeting, Catsimpoolas, Ed., pp. 275-303, Elsevier, Miami Beach, Fla. When systematic residuals or a Mw higher than the monomer molecular weight indicated the presence of self-association, associative models such as monomer/trimer, monomer/tetramer and monomer/dimer/tetrarner were investigated. The suitability of a particular model (i.e., the goodness of fit) was judged by the trends observed in the residuals (Johnson & Straume, 1994, in Modern Analytical Ultracentrifugation, Schuster et al., eds., pp. 37-65, Birkhauser, Boston). Using the associative model which produced random residuals when fitting individual data files, a simultaneous, global, weighted fit of multiple data files (up to nine files with different concentrations and speeds) was performed to determine the association constant and 95% confidence intervals. To convert the resulting association constant from absorbance units to concentration units, it was assumed that the absorbance of the n-mer is n times that of the monomer.
The data obtained with DP107-like/DP178-like peptide mixtures were first analyzed with a single ideal species model. When a systematic trend in residuals coupled with the Mw not equal to a precise multimer of HR1+HR2 were obtained, and alternate fitting scheme was explored. For this approach, it was assumed that the solution contained fully associated HR1-HR2 complexes and unassociated DP107-like and DP178-like peptides. The mixtures were analyzed with a two-ideal species model, choosing one species to have a molecular weight of either 28,269 Da (corresponding to three DP107-like plus three DP178-like peptides) or […] (corresponding to four DP107-like plus four DP178-like peptides).

For the compound `CC[C@H](C)[C@H](NC(=O)[C@H](Cc1ccccc1)NC(=O)[C@H](C)NC(=O)[C@H](CC(C)C)NC(=O)[C@H](CO)NC(=O)[C@H](CCC(N)=O)NC(=O)[C@H](CC(N)=O)NC(=O)[C@@H](NC(=O)[C@H](CCCCN)NC(=O)[C@H](CCC(=O)O)NC(=O)[C@H](CC(N)=O)NC(=O)[C@@H](NC(=O)[C@H](CCC(N)=O)NC(=O)[C@H](CO)NC(=O)[C@@H](NC(=O)[C@H](CO)NC(=O)[C@H](C)NC(=O)[C@H](CC(=O)O)NC(=O)[C@H](Cc1ccccc1)NC(=O)[C@H](CCC(=O)O)NC(=O)[C@H](CC(=O)O)NC(=O)[C@H](CO)NC(=O)[C@@H]1CCCN1C(=O)[C@H](Cc1ccccc1)NC(=O)[C@@H](NC(C)=O)C(C)C)[C@@H](C)CC)C(C)C)[C@@H](C)CC)C(=O)N[C@@H](CCCNC(=N)N)C(=O)N[C@@H](CCCCN)C(=O)N[C@@H](CO)C(=O)N[C@@H](CC(=O)O)C(=O)N[C@@H](CCC(=O)O)C(=O)N[C@@H](CC(C)C)C(=O)N[C@@H](CC(C)C)C(=O)N[C@@H](Cc1c[nH]cn1)C(=O)N[C@@H](CC(N)=O)C(=O)N[C@H](C(N)=O)C(C)C` [Peptide T112], the “oligomerization state in solution (in words)” value is listed as “behaves as a monomer”. For the same compound, where the note is “50 μM, 25,000, 30,000 and 35,000 rpm”, the Mw value is listed as 3,984 Da.

The values above are taken from patent publication US6623741B1, “Methods and compositions for inhibition of membrane fusion-associated events including RSV transmission” (Trimeris, Inc., priority 2000, dated 2003).
